Patent EP0504254B1, “THE USE OF GIBBERELLINS FOR THE MANUFACTURE OF A MEDICAMENT FOR THE TREATMENT OF PROSTATITIS” (ODEN, Per, priority 1989, dated 1991)

Assays:
[1] = tested on: male adult uncastrated rats; test: Dihydrotestosterone-induced hypertrophic growth of the prostatic gland in rats; assay type: in vivo; conditions: daily 50 mg dihydrotestosterone alone for three months
Experimental: The weight of the prostate was 814 mg, which was equivalent to about 0.34 % of the total body weight. When the rats were simultaneously given a daily dosis of 100 µg of gibberellins GA₂₀ and GA₃₀, an increase in prostate weight was not detected. The weight of the prostate was in this case 582 mg, which was equivalent to 0.20 % of the total body weight.

castrated rats = conditions: C.R. Séances Soc. Biol. Filiales 163 (1969); cited from earlier work

Row | Compound | weight of the prostate [1] [mg] | weight of the prostate, equivalent % of the total body weight [1] | prostate weight (castrated rats)
1 | C[C@]12CCC(=O)C[C@@H]1CC[C@@H]1[C@@H]2CC[C@]2(C)[C@@H](O)CC[C@@H]12 [dihydrotestosterone] | 814 | about 0.34% | –
2 | C=C1C[C@]23C[C@@]1(O)CC[C@H]2[C@@]12C=C[C@H](O)[C@@](C)(C(=O)O1)[C@H]2[C@@H]3C(=O)O [gibberellic acid] | – | – | restitution of prostate weight
